Experimental data: the supplement of paper PMC10307832

Columns and labels:
Test in all cases: relative viability (nuclei count vs DMSO), 5 days (fraction); higher = more cells survive
AZD5582 + Olaparib = compound: C[C@@H](C(=O)N[C@@H](C1CCCCC1)C(=O)N2CCC[C@H]2C(=O)N[C@@H]3[C@@H](CC4=CC=CC=C34)OCC#CC#CCO[C@@H]5CC6=CC=CC=C6[C@@H]5NC(=O)[C@@H]7CCCN7C(=O)[C@H](C8CCCCC8)NC(=O)[C@H](C)NC)NC [AZD5582] + O=C(c1cc(Cc2n[nH]c(=O)c3ccccc23)ccc1F)N1CCN(C(=O)C2CC2)CC1 [Olaparib] (partner 8 µM)
Outline: (§1)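 Lung cancer cell lines in 1536-well plates were dosed by pin tool the day after seeding, either with one drug alone or with a fixed anchor-drug dose plus five library-drug doses (not always all listed) in √10 steps. After 5 days, cells were fixed and their nuclei stained in one step (final 0.05% Triton X-100, 1% formaldehyde, 1 ug/ml Hoechst), then counted on 4× images. Relative viability is the nuclei count in treated wells divided by that in vehicle wells. Values are medians of duplicate plates.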

AZD5582 + Luminespib = compound: C[C@@H](C(=O)N[C@@H](C1CCCCC1)C(=O)N2CCC[C@H]2C(=O)N[C@@H]3[C@@H](CC4=CC=CC=C34)OCC#CC#CCO[C@@H]5CC6=CC=CC=C6[C@@H]5NC(=O)[C@@H]7CCCN7C(=O)[C@H](C8CCCCC8)NC(=O)[C@H](C)NC)NC [AZD5582] + CCNC(=O)c1noc(-c2cc(C(C)C)c(O)cc2O)c1-c1ccc(CN2CCOCC2)cc1 [Luminespib] (partner 0.01 µM)
Outline: as §1

Temozolomide + AZD7762 = compound: Cn1nnc2c(C(N)=O)ncn2c1=O [Temozolomide] + NC(=O)Nc1cc(-c2cccc(F)c2)sc1C(=O)N[C@H]1CCCNC1 [AZD7762] (partner 0.2 µM)
Outline: as §1

[1] = compound: Cn1nnc2c(C(N)=O)ncn2c1=O [Temozolomide] + CS(=O)(=O)N1CCN(Cc2cc3nc(-c4cccc5[nH]ncc45)nc(N4CCOCC4)c3s2)CC1 [Pictilisib] (partner 1 µM)
Outline: as §1

Cell Line	relative viability (AZD5582 + Olaparib; first compound 0.001581 µM)	relative viability (AZD5582 + Olaparib; first compound 0.005 µM)	relative viability (AZD5582 + Olaparib; first compound 0.01581 µM)	relative viability (AZD5582 + Olaparib; first compound 0.05 µM)	relative viability (AZD5582 + Luminespib; first compound 0.001581 µM)	relative viability (AZD5582 + Luminespib; first compound 0.005 µM)	relative viability (AZD5582 + Luminespib; first compound 0.01581 µM)	relative viability (AZD5582 + Luminespib; first compound 0.05 µM)	relative viability (Temozolomide + AZD7762; first compound 0.2 µM)	relative viability (Temozolomide + AZD7762; first compound 0.6325 µM)	relative viability (Temozolomide + AZD7762; first compound 2 µM)	relative viability (Temozolomide + AZD7762; first compound 6.325 µM)	relative viability (Temozolomide + AZD7762; first compound 20 µM)	relative viability ([1]; first compound 0.2 µM)	relative viability ([1]; first compound 0.6325 µM)	relative viability ([1]; first compound 2 µM)	relative viability ([1]; first compound 6.325 µM)	relative viability ([1]; first compound 20 µM)
LK-2	0.63	0.702	0.772	0.675	0.178	0.202	0.191	0.171	0.444	0.372	0.404	0.254	0.271	0.48	0.568	0.575	0.353	0.305
LCLC-97TM1	0.38	0.319	0.366	0.272	0.766	0.794	0.785	0.857	0.352	0.293	–	0.168	0.253	0.197	0.224	0.163	0.178	0.17
PC-3 [JPC-3]	0.914	0.855	1.09	0.536	0.628	0.67	0.638	0.557	0.775	0.916	0.825	0.797	0.529	0.71	0.775	0.798	0.774	0.296
NCI-H1975	0.862	1.06	0.764	0.951	0.255	0.282	0.174	0.353	–	0.778	0.85	0.679	0.78	0.272	0.308	0.311	0.302	0.311
NCI-H647	0.492	0.587	0.6	0.589	0.145	0.149	0.171	0.107	0.674	0.549	0.392	0.205	0.145	0.419	0.444	0.406	0.272	0.216
NCI-H838	0.744	0.811	0.711	0.743	0.33	0.318	–	0.204	0.914	0.977	0.961	0.89	0.881	0.45	0.48	0.577	0.446	0.584
LCLC-103H	0.806	0.836	0.714	0.862	0.877	0.943	0.896	0.886	0.849	0.758	0.902	0.678	0.771	0.614	0.523	0.816	0.509	0.62
NCI-H2087	0.442	0.604	0.607	0.719	0.171	0.135	0.176	0.148	1.38	1.31	1.46	1.35	1.33	1.08	0.858	0.927	0.895	0.851
NCI-H322M	0.745	0.865	0.692	0.882	0.979	1.11	–	1.44	0.558	0.559	0.545	0.547	0.455	–	0.555	0.545	0.483	0.363
PC-14	0.183	0.148	0.306	0.136	0.171	0.168	0.105	0.143	0.361	0.402	0.322	0.275	0.15	0.834	0.791	0.737	0.614	0.0773
NCI-H460	0.36	0.411	0.345	0.413	0.0278	0.039	0.0382	0.0351	0.694	0.643	0.694	0.611	0.619	0.326	0.318	0.472	0.272	0.309
H3255	0.489	0.598	0.553	0.481	0.731	0.956	0.653	0.824	–	0.839	0.878	0.808	0.257	–	0.539	0.422	0.38	0.0897
NCI-H1355	0.68	0.728	0.658	0.774	0.599	0.674	0.606	0.923	0.736	0.743	0.716	0.729	0.751	0.433	0.46	0.427	0.38	0.39
NCI-H2170	0.561	0.543	0.628	0.688	0.798	0.606	0.626	0.786	–	0.951	0.733	0.466	0.295	–	0.38	0.361	0.289	0.23
EPLC-272H	–	–	0.955	0.0712	0.24	–	0.205	0.381	0.194	0.259	0.418	0.217	0.208	0.356	0.35	0.334	0.298	0.326
NCI-H596	0.566	–	0.802	0.252	–	–	0.931	0.551	1.29	1.09	1.17	1.02	1.29	0.421	0.404	0.411	0.385	0.384
201T	0.916	0.904	0.778	0.989	1.11	1.17	0.99	1.23	0.648	0.649	0.746	0.566	0.519	0.683	0.731	0.735	0.69	0.641
LU99A	0.279	0.264	0.213	0.266	0.215	0.227	0.271	0.266	0.377	0.355	0.353	0.421	0.43	0.325	0.351	0.324	0.343	0.335
